For data set [1], the system named is rats. On the set-up: method as in ref 24 = [24]; 24. Ma N. Wang J. Xu F. Li J. Li Y. Xiao H. Xiang D. Studies on absorptive characters of resveratrol derivative (e)-3,5,4′-trimethoxystilbene in rat intestine Chin. J. Pharm. Anal 2010 30 586 591. The note with it: in perfusion buffer, preliminary experiments; cited from earlier work.
Data set [2] deals with rat duodenum, jejunum and ileum. Briefly: In situ single-pass intestinal perfusion (SPIP). The note with it: perfusate 40 μg/mL, n = 6. The protocol: The blank perfusion buffer solution was composed of 9.80 g Hanks’ Balanced Salts, 5.96 g 4-2(Hydroxyethyl) piperazine-1-ethanesulfonic acid (HEPES), 1.16 g NaCl, 3.50 g D-glucose and 0.37 g NaHCO3. The pH was adjusted to 6.5. […] The perfusate containing 2 μg/mL of NCE with and without 0.4% SDS was applied to three intestinal segments to investigate the effect of SDS on intestinal absorption of NCE. To examine whether there was any concentration-dependent characteristics or site specific absorption of NCE, 2, 20 and 40 μg/mL of NCE containing 0.4% SDS (w/v) were also studied in three intestinal segments using the same rat perfusion model.
Male Sprague-Dawley rats (170–230 g) were obtained from the Laboratory Animal Center, Sichuan University (Chengdu, China). Prior to the experiment, animals were fasted for at least 18 h with free access to water. All animal studies were approved and supervised by the State Key Laboratory of Biotherapy Animal Care and Use Committee (Sichuan University, Chengdu, Sichuan, China). Then, single pass intestine perfusion studies were conducted according to the literature. In brief, rats were anaesthetized by pentobarbital sodium (i.p., […]) and placed on a homeothermic pad to maintain their body temperature. After making a 3–4 cm midline abdominal incision, the small intestinal was exposed. The duodenum, jejunum and ileum were isolated as follows: duodenum segment beginning from 1 cm away from pylorus, jejunum segment beginning from 20 cm away from pylorus and ileum segment beginning at the site 20 cm upwards caecum. Each intestinal segment was approximately 10 cm long. After removing the intestinal content by rinsing with warm saline, two glass cannulas were inserted to the distal and proximal end of the segment. Then, the intestinal segments of interest were connected to a perfusion pump and the outlet tubing was placed at the same height as the inlet. The intestine was handled carefully to maintain an intact blood supply.
The segments were rinsed with perfusate at the rate of 1.0 mL/min for 10 min, and then perfused at the rate of 0.2 mL/min for 30 min to maintain a steady-state. The time was set zero immediately when the perfusion started. The outlet perfused samples were collected every 15 min until 120 min. Then, the samples were centrifuged at 1.3 × 10^4 rpm for 10 min. The supernatant was analyzed by HPLC. The length of tested segments was measured and rats were euthanized after experiment.
Peff is the quantitative parameter estimating the passage rate of a solute across a membrane. It was calculated from the steady-state concentration of NCE in the perfusate. The drug concentration in the perfusate was corrected for changes in the water flux. Meanwhile, the density corrected gravimetric method was employed to calculate the net water flux across the incubated intestinal segment. A known volume of perfusate was weighed using an electronic weighing balance to determine the density of the collected samples. After correcting for water flux, the drug concentration in the effluent perfusate (Cout(cor)), was calculated as following.
(3) Cout(cor)=Cout×Qout/Qin
where Cout is the concentration of tested drug in the effluent perfusates, Qin and Qout are the inlet and outlet flow rate (mL/min), respectively, which are adjusted for liquid density (mL/min).
The calculation of permeability across rat intestinal segment was performed from the intestinal perfusate samples collected over 15–120 min (steady state) using the following equation).
(4) Peff=-Qin ln(Cout(cor)/Cin)/2πrl

For data set [3] the test system is unchanged. Set-up: method as in PMID 15296954, PMID 8893271. The conditions noted are these: reference compounds; cited from earlier work.

Turning to `CCCCCCCCCCCCOS(=O)(=O)[O-].[Na+]` [SDS, sodium dodecyl sulfate], the “concentration toxic to rats” value in data set [1] is “higher than 1%”.

Take `Cn1c(=O)c2[nH]cnc2n(C)c1=O` [Theophylline, reference compound]: the Peff in data set [2] (Duodenum) is on record as 0.74 ± 0.02 ^* 10^−4 cm/s; in data set [2] (Ileum), 0.63 ± 0.04 ^N.S. ^* 10^−4 cm/s; in data set [2] (Jejunum) it was 0.64 ± 0.01 ^N.S. ^* 10^−4 cm/s.

With `CNC(=C[N+](=O)[O-])NCCSCc1ccc(CN(C)C)o1` [Ranitidine, reference compound], the permeability class entry in data set [3] is “low permeability”. The Peff in data set [2] (Duodenum) is recorded as 0.15 ± 0.07 ^* 10^−4 cm/s; in data set [2] (Ileum), 0.17 ± 0.02 ^N.S ^* 10^−4 cm/s; in data set [2] (Jejunum), 0.19 ± 0.07 ^N.S. ^* 10^−4 cm/s.

The values are drawn from publication PMC4057667, “Study on Biopharmaceutics Classification and Oral Bioavailability of a Novel Multikinase Inhibitor NCE for Cancer Therapy” (International Journal of Molecular Sciences, 2014).
